Molecules are shown by their SMILES.

The values below come from patent US20060281763A1, “Carboxamide inhibitors of TGFbeta” (priority 2005, published 2006).

In the assay the target is T1, TGFβ R1 (Homo sapiens, UniProt P36897).
T1 sequence (P36897 34-503): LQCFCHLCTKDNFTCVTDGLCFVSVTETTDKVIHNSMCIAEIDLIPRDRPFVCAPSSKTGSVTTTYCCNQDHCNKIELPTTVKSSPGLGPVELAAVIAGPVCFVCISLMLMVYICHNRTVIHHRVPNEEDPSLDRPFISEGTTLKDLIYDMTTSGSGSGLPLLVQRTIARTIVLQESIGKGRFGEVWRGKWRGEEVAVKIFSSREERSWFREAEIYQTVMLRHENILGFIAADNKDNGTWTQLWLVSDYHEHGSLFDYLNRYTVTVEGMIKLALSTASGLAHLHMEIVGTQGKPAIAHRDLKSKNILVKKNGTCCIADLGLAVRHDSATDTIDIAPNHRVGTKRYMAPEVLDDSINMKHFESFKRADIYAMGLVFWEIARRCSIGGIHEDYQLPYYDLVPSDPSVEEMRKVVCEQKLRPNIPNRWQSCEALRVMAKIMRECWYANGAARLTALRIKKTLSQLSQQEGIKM
Description: TGFβ R1 autophosphorylation protocol (33P-ATP, phosphocellulose filter plate). In kind it is biochemical. Conditions: 10 uM ATP, 170 nM TGFβ R1, 20 minutes at room temperature, read-out: IC50 for Kinase Inhibition. The method in brief: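 Radiometric autophosphorylation: 170 nM enzyme with compound (≤1% DMSO), 10 uM ATP plus γ-33P-ATP, […] in 20 mM MOPS pH 7, 20 min at room temperature. Reaction stopped on phosphocellulose filter, washed with H3PO4 and ethanol, counted by scintillation.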
In the case of `COc1cnc(-c2cc(Cl)ccc2F)nc1Nc1ccncc1C(=O)N1CCN(CCO)CC1` [Compound 116, {4-[2-(5-Chloro-2-fluoro-phenyl)5-methoxy-pyrimidin-4-ylamino]pyridin-3-yl}-[4-(2-hydroxy-ethyl)-piperazin-1-yl]-methanone], the IC50 is 7370 nM.
Regarding `COc1cnc(-c2cc(Cl)ccc2F)nc1Nc1ccncc1C(=O)N1CCNCC1` [Compound 117, {4-[2-(5-Chloro-2-fluoro-phenyl)-5-methoxy-pyrimidin-4-ylamino]-pyridin-3-yl}-piperazin-1-yl-methanone], the IC50 was found to be 6780 nM.
Consider `COc1cnc(-c2cc(Cl)ccc2F)nc1Nc1ccncc1C(=O)N1CCN(C)CC1` [Compound 118, {4-[2-(5-Chloro-2-fluoro-phenyl)-5-methoxy-pyrimidin-4-ylamino]-pyridin-3-yl}-(4-methyl-piperazin-1-yl)-methanone], for which the IC50 is 6570 nM.
As for `CNC(=O)c1cnccc1Nc1nc(-c2cc(Cl)ccc2F)ncc1Cl` [Compound 119, 4-[5-Chloro-2-(5-chloro-2-fluoro-phenyl)-pyrimidin-4-ylamino]-N-methyl-nicotinamide], the IC50 came to 155 nM.
On to `CONC(=O)c1cnccc1Nc1nc(-c2cc(Cl)ccc2F)ncc1OC` [Compound 120, 4-[2-(5-Chloro-2-fluoro-phenyl)-5-methoxy-pyrimidin-4-ylamino]-N-methoxy-nicotinamide], for which the IC50 was found to be 190 nM.
Take `CCOP(=O)(OCC)O[C@@H](C)CNC(=O)c1cnccc1Nc1nc(-c2cc(Cl)ccc2F)ncc1OC` [Compound 121, Phosphoric acid 2-({4-[2-(5-chloro-2-fluoro-phenyl)-5-methoxy-pyrimidin-4-ylamino]-pyridine-3-carbonyl}-amino)-1-methyl-ethyl ester diethyl ester]: the IC50 came to 5770 nM.
For `CNC(=O)[C@@H]1CCCN1CCCNC(=O)c1cnccc1Nc1nc(-c2cc(Cl)ccc2F)ncc1OC` [Compound 122, 4-[2-(5-Chloro-2-fluoro-phenyl)-5-methoxy-pyrimidin-4-ylamino]-N-[3-(2-methylcarbamoyl-pyrrolidin-1-yl)-propyl]-nicotinamide], the IC50 was found to be 53 nM.
Under `COc1cnc(-c2cc(Cl)ccc2F)nc1Nc1ccncc1C(=O)NCCCN1CCC[C@H]1C(N)=O` [Compound 123, N-[3-(2-Carbamoyl-pyrrolidin-1-yl)-propyl]-4-[2-(5-chloro-2-fluoro-phenyl)-5-methoxy-pyrimidin-4-ylamino]-nicotinamide] stands 23 nM.
Consider `COC[C@H]1OC(CCNCCCNC(=O)c2cnccc2Nc2nc(-c3cc(Cl)ccc3F)ncc2OC)[C@H](OC)[C@@H](OC)[C@@H]1OC` (some centres unmarked) [Compound 124, 4-[2-(5-Chloro-2-fluoro-phenyl)-5-methoxy-pyrimidin-4-ylamino]-N-{3-[2-(3,4,5-trimethoxy-6-methoxymethyl-tetrahydro-pyran-2-yl)-ethylamino]-propyl}-nicotinamide], for which the IC50 is 42 nM.
Under `COC[C@@H]1OC(CCNCCCNC(=O)c2cnccc2Nc2nc(-c3cc(Cl)ccc3F)ncc2OC)[C@@H](OC)[C@H](OC)[C@H]1OC` (some centres unmarked) [Compound 125, 4-[2-(5-Chloro-2-fluoro-phenyl)-5-methoxy-pyrimidin-4-ylamino]-N-{3-[2-(3,4,5-trimethoxy-6-methoxymethyl-tetrahydro-pyran-2-yl)-ethylamino]-propyl}-nicotinamide] stands 32 nM; under `COC[C@H]1OC(CCNCCCNC(=O)c2cnccc2Nc2nc(-c3cc(Cl)ccc3F)ncc2OC)[C@H](OC)[C@@H](OC)[C@H]1OC` (some centres unmarked) [Compound 126], 50 nM.
On to `COc1cnc(-c2cc(Cl)ccc2F)nc1Nc1ccncc1C(=O)NCCCNCCC1O[C@H](CO)[C@@H](O)[C@H](O)[C@H]1O` (some centres unmarked) [Compound 127, 4-[2-(5-Chloro-2-fluoro-phenyl)-5-methoxy-pyrimidin-4-ylamino]-N-{3-[2-(3,4,5-trihydroxy-6-hydroxymethyl-tetrahydro-pyran-2-yl)-ethylamino]-propyl}-nicotinamide], for which the IC50 is 63 nM.
In the case of `COc1cnc(-c2cc(Cl)ccc2F)nc1Nc1ccncc1C(=O)N[C@H]1CCNC1` [Compound 128, 4-[2-(5-Chloro-2-fluoro-phenyl)-5-methoxy-pyrimidin-4-ylamino]-N-pyrrolidin-3-yl-nicotinamide], the IC50 was 8 nM.
As to `COc1cnc(-c2cc(Cl)ccc2F)nc1Nc1ccncc1C(=O)NOCC1CC1` [Compound 129, 4-[2-(5-Chloro-2-fluoro-phenyl)-5-methoxy-pyrimidin-4-ylamino]-N-cyclopropylmethoxy-nicotinamide], the IC50 came to 59 nM.
As to `COc1cnc(-c2cc(Cl)ccc2F)nc1Nc1ccncc1C(=O)NCC(C)(C)N` [Compound 130, N-(2-Amino-2-methyl-propyl)-4-[2-(5-chloro-2-fluoro-phenyl)-5-methoxy-pyrimidin-4-ylamino]-nicotioamide], the IC50 amounted to 38 nM.
With `COc1cnc(-c2cc(Cl)ccc2F)nc1Nc1ccncc1C(=O)NCCCNC(C)C` [Compound 131, 4-[2-(5-Chloro-2-fluoro-phenyl)-5-methoxy-pyrimidin-4-ylamino]-N-(3-isoopropyl-amino-propyl)-nicotinamide], the half-maximal inhibitory concentration (IC50) came out at 21 nM.
Under `COc1cnc(-c2cc(Cl)ccc2F)nc1Nc1ccncc1C(=O)NCCCNC(=O)COC1O[C@H](COC(C)=O)[C@@H](OC(C)=O)[C@H](OC(C)=O)[C@H]1OC(C)=O` (some centres unmarked) [Compound 133] stands 327 nM; under `COc1cnc(-c2cc(Cl)ccc2F)nc1Nc1ccncc1C(=O)NCCCNCCOC1O[C@H](CO)[C@@H](O)[C@H](O)[C@H]1O` (some centres unmarked) [Compound 134, 4-[2-(5-Chloro-2-fluoro-phenyl)-5-methoxy-pyrimidin-4-ylamino]-N-{3-[2-(3,4,5-trihydroxy-6-hydroxymethyl-tetrahydro-pyran-2-yloxy)-ethylamino]-propyl}-nicotinamide], 12 nM; under `COc1cnc(-c2cc(Cl)ccc2F)nc1Nc1ccncc1C(=O)NCCNCCC1O[C@H](CO)[C@@H](O)[C@H](O)[C@H]1O` (some centres unmarked) [Compound 136, 4-[2-(5-Chloro-2-fluoro-phenyl)-5-methoxy-pyrimidin-4-ylamino]-N-{2-[2-(3,4,5-trihydroxy-6-hydroxymethyl-tetrahydro-pyran-2-yl)-ethylamino]-ethyl}-nicotinamide], 7 nM.
To `COc1cnc(-c2cc(Cl)ccc2F)nc1Nc1ccncc1C(=O)NC1CCN(CCC2O[C@H](CO)[C@@H](O)[C@H](O)[C@H]2O)CC1` (some centres unmarked) [Compound 137, 4-[2-(5-Chloro-2-fluoro-phenyl)-5-methoxy-pyrimidin-4-ylamino]-N-{1-[2-(3,4,5-trihydroxy-6-hydroxymethyl-tetrahydro-pyran-2-yl)-ethyl]-piperidin-4-yl}-nicotinamide] belongs 18 nM; to `COc1cnc(-c2cc(Cl)ccc2F)nc1Nc1ccncc1C(=O)N[C@@H]1CCNC1` [Compound 138, 4-[2-(5-Chloro-2-fluoro-phenyl)-5-methoxy-pyrimidin-4-ylamino]-N-pyrrolidin-3-yl-nicotinamide], 24 nM.
Regarding `COc1cnc(-c2cc(Cl)ccc2F)nc1Nc1ccncc1C(=O)NCCCNCCO[C@H]1O[C@H](CO)[C@H](O)[C@H](O)[C@H]1O` [Compound 139, 4-[2-(5-Chloro-2-fluoro-phenyl)-5-methoxy-pyrimidin-4-ylamino]-N-{3-[2-(3,4,5-trihydroxy-6-hydroxymethyl-tetrahydro-pyran-2-yloxy)-ethylamino]-propyl}-nicotinamide], the IC50 was 7 nM.
`COc1cnc(-c2cc(Cl)ccc2F)nc1Nc1ccncc1C(=O)NCCCNC(=O)CO[C@H]1O[C@H](CO)[C@H](O)[C@H](O)[C@H]1O` [Compound 140, 4-[2-(5-Chloro-2-fluoro-phenyl)-5-methoxy-pyrimidin-4-ylamino]-N-{3-[2-(3,4,5-trihydroxy-6-hydroxymethyl-tetrahydro-pyran-2-yloxy)-acetylamino]-propyl}-nicotinamide]: the IC50 is 44 nM.
To `COc1cnc(-c2cc(Cl)ccc2F)nc1Nc1ccncc1C(=O)NC1CC1CO` (centres unmarked) [Compound 141, 4-[2-(5-Chloro-2-fluoro-phenyl)-5-methoxy-pyrimidin-4-ylamino]-N-(2-hydroxymethyl-cyclopropyl)-nicotinamide] belongs 38 nM; to `COc1cnc(-c2cc(Cl)ccc2F)nc1Nc1ccncc1C(=O)NCCNCCOC1O[C@H](COC(C)=O)[C@@H](OC(C)=O)[C@H](OC(C)=O)[C@H]1OC(C)=O` (some centres unmarked) [Compound 142, Acetic acid 3,4,5-triacetoxy-6-(2-[2-({4-[2-(5-chloro-2-fluoro-phenyl)-5-methoxy-pyrimidin-4-ylamino]-pyridine-3-carbonyl]-amino)-ethylamino]-ethoxy}tetrahydro-pyran-2-ylmethyl ester], 10 nM.
For the compound `COc1cnc(-c2cc(Cl)ccc2F)nc1Nc1ccncc1C(=O)NCCNC(=O)COC1O[C@H](COC(C)=O)[C@@H](OC(C)=O)[C@H](OC(C)=O)[C@H]1OC(C)=O` (some centres unmarked) [Compound 143, Acetic acid 3,4,5-triacetoxy-6-{[2-({4-[2-(5-chloro-2-fluoro-phenyl)-5-methoxy-pyrimidin-4-ylamino]-pyridine-3-carbonyl}-amino)-ethylcarbamoyl]-methoxy}-tetrahydro-pyran-2-ylmethyl ester], the IC50 was found to be 183 nM.

As a reminder, the IC50 is the concentration that gives 50% inhibition.
